Assays:
[1] = system: ribosome-mRNA complexes of PC3 prostate cancer cells; assay: Puromycin-mediated dissociation of ribosome-mRNA complexes, western blot of polysomal fractions; assay type: biochemical, human; conditions: 1 mM puromycin in lysis buffer, 37° C. 15 min
Procedure: Puromycin-induced polysome dissociation was carried out by the addition of 1 mM puromycin directly to the lysis buffer lacking cycloheximide as previously described (Blobel and Sabatini, Proc Natl Acad Sci USA 68:390-394, 1971; Fuchs et al., J Mol Biol. 410:118-130, 2011). Briefly, following lysis, the samples were incubated at 37° C. for 15 min to dissociate ribosome-mRNA complexes. Lysates were centrifuged at 13,000 rpm for 5 min at 4° C., and the supernatant carefully removed and loaded on a 15%-50% sucrose gradient. Gradients were centrifuged and fractionated as described above.
Cells were lysed in lysis buffer containing Complete Mini protease inhibitors (EDTA free) (Roche) and a Phosphatase Inhibitor cocktail (Thermo Scientific). 5-50 μg of total protein was subjected to SDS-PAGE on 4-12% Bis-Tris acrylamide NuPAGE gels in MOPS SDS running buffer (Invitrogen). The following primary antibodies were used: MARCKS, phospho-MARCKS (S152/156), Integrin β1, Calmodulin, Hsp27, Hsp60, RpL13a, RpL7a, and RpS6 (all Cell Signaling), HSP90, (BD Bioscience; BD Transduction Laboratories), hnRNPC1/C2 (Millipore), Rps14 and β-actin (all from Santa Cruz Biotechnologies). The NPM antibody was from DAKO and the IGF2BP3 antibody was from ProteinTech. Subsequently, membranes were incubated with secondary, HRP-tagged antibodies (Amersham) and signals were visualized with ECL or ECL plus (Amersham). […]

[2] = system: riboproteomes of PPC1 prostate cancer cells; assay: SILAC riboproteomic analysis of polysomes upon mTOR inhibition; assay type: cell-based, human
Procedure: SILAC labeled protein mixtures were run by SDS-PAGE and gel lanes were cut into 8 sections for overnight digestion at pH 8.0 with modified sequencing grade trypsin (Promega Corp.). Peptide mixtures were eluted and each gel section was analyzed separately by microcapillary liquid chromatography-tandem mass spectrometry (LC-MS/MS) using the EASY-nLC nanoflow HPLC (Thermo Fisher Scientific) with a 75 μm inner diameter×15 cm length Picofrit capillary column (New Objective, Inc.) self-packed with 5 μm Magic C18 resin (Michrom Bioresources) coupled to a hybrid LTQ Orbitrap XL-ETD mass spectrometer (Thermo Fisher Scientific). The LTQ Orbitrap XL was operated in data-dependent acquisition (DDA) Top 5 mode (1 profile FT-MS spectrum followed by 6 centroided IT-MS/MS spectra). The resolution was 30,000 in FT-MS mode and MS/MS spectra were read out at low resolution in the LTQ XL ion trap. […] Carbamidomethylation of cysteine was set as fixed modification and variable modifications were oxidation of methionine and protein N-acetylation. […] Initial peptide mass tolerance was set to 12 ppm and fragment ion mass tolerance was set to 0.8 Da. Two missed cleavages were allowed and the minimal length required for a peptide was six amino acids. […]

[3] = system: binding of LARP1 at the polysome; assay: Micrococcal nuclease (MN) assay on pooled sucrose gradient fractions, ribosome pelleting and western blot; conditions: cells treated with PP242 prior to analysis
Procedure: Pooled sucrose gradient fractions containing LARP1 protein, were treated with and without MN. Ribosomes were subsequently pelleted by ultracentrifugation, and the protein in supernatant and pellet isolated for western blot analysis.

Structure (SMILES)	RpS6 and RpL13a on polyribosomes ([1]; pooled polysomal fractions)	presence of MARCKS in polyribosome fractions ([1]; PC3 cells)	disassociation of proteins incl. ribosomal proteins (RpL4, RpL6, RpS6) from the riboproteome ([2]; PP242 500 nM for three hours vs DMSO)	impact on the composition of the riboproteome ([2]; rapamycin 20 nM or PP242 500 nM for three hours vs DMSO, SILAC mass spectrometry of polysomes)	LARP1 in supernatant after ribosome pelleting [3]	PABP association with polysome fractions [3]
COc1ccc(C[C@H](N)C(=O)N[C@H]2[C@@H](O)[C@H](n3cnc4c(N(C)C)ncnc43)O[C@@H]2CO)cc1 [puromycin]	loss of RpS6 and RpL13a from polyribosomes	dramatically decreased				
CC(C)n1nc(-c2cc3cc(O)ccc3[nH]2)c2c(N)ncnc21 [PP242]			rapid and significant disassociation from the riboproteome	much stronger and more robust perturbation of the riboproteome	more LARP1 observed in the supernatant	remain tightly intact with polysome fractions
